Test results as given in paper PMC6754133 (PLoS ONE, 2019).

How the values were obtained:
[1] = test system: Platelet-derived growth factor receptor alpha (PGFRA_HUMAN); set-up: method as in earlier work; settings: S2/S3 Table; ref [1] Davis MI et al., Nat Biotechnol. 2011; cited from earlier work
[2] = test system: firefly luciferase under control of cAMP response element (CRE); assay: CRE-luciferase counter assay in HEK293s cells; type: cell-based; settings: different concentrations
Method: (a) The drugs were tested at different concentrations in HEK293s cells stably transfected with firefly luciferase under control of cAMP response element (CRE) (pGL4.29[luc2P/CRE/Hygro], Promega). […] Raw, non-normalized luminescence values are presented, to facilitate the assessment of the extent of inhibition. Shown is a single representative experiment out of the multiple experiments performed on different days. (Mean ± SD)

[3] = test system: Platelet-derived growth factor receptor beta (PGFRB_HUMAN); set-up: method as in earlier work; settings: S2/S3 Table; ref [1] Davis MI et al., Nat Biotechnol. 2011; cited from earlier work
[4] = test system: MB-PDX and DAOY cells; assay: Cell viability with and without Vismodegib (0.5 uM), alamar blue; type: cell-based, human; settings: with 0.5 μM Vismodegib, 72 hours
Method: S6 Figure: Cell viability in Medulloblastoma Cells (MB-PDX and DAOY) [n=3]. […] The cell viability was measured after 72 hours of treatment using alamar blue. (Mean ± SD)

[5] = test system: Hh/SMO pathway; assay: Gli-Luciferase functional assay, NIH 3T3 Gli-RE cells stimulated with ShhN; type: cell-based; settings: NIH 3T3 Gli-RE cells, ShhN stimulated
Method: After 24 hours, when the cells reached confluency, the culture medium was replaced with 80 μL per well of assay medium [Optimem ± 10 mM HEPES ± 1 mM Sodium Pyruvate + 1× MEM NEAA]. […] Then the cells were stimulated by addition of either ShhN-conditioned media or control media (DMEM±10%BCS) at a final concentration of 10%. Following incubation of the plate for at least 28 hours at 37°C, the cells were simultaneously lysed and supplemented with a luciferase substrate by addition of equal volume of Steady-Glo reagent (Promega, E2520) directly to the assay media. Plates were mixed by pipetting, centrifuged to eliminate foam, incubated for 10 minutes, and analyzed using Perkin Elmer Viktor X luminescence plate reader. The results were analyzed using a non-linear regression (Prism 6, GraphPad Software, La Jolla, CA). Data were normalized to the maximal response observed for ShhN-stimulated cells in the same experiment. A sigmoidal-dose response curve was used as a model for data analysis and IC50 value calculation.

[6] = test system: DAOY cells; assay: Neurosphere formation assay; type: cell-based, human; settings: DAOY, 10 μM, at least 7 days, 1–2 cells per well
Method: (§1) The final concentration of test compounds in the wells was 10 μM. Cells were incubated at 37 °C for at least seven days. After incubation percent of wells positive with neural stem cell-derived sphere colonies were calculated for each test condition and compared.

[7] = test system: Mast/stem cell growth factor receptor Kit (KIT_HUMAN); set-up: method as in earlier work; settings: S2/S3 Table; ref [1] Davis MI et al., Nat Biotechnol. 2011; cited from earlier work
[8] = test system: MB-PDX cells; assay: Neurosphere formation assay; type: cell-based, human; settings: MB-PDX, 10 μM, at least 7 days, 1–2 cells per well
Method: as §1

## Cc1ccc(NC(=O)c2ccc(CN3CCN(C)CC3)cc2)cc1Nc1nccc(-c2cccnc2)n1 [Imatinib]
[1]
  Kd/Ki Value: 31 nM
[2]
  Effect on CRE-driven luciferase activity (independent of SMO): lack of dose-dependent effect
[3]
  Kd/Ki Value: 14 nM
[4]
  Change of efficacy in cell viability assay in the presence of Vismodegib: improvement in efficacy
[5]
  Inhibition of ShhN-induced Hh signaling (in words): inhibited ShhN-induced Hh signaling in a dose-dependent manner
[6]
  Inhibition of NS formation, wells: less potent
[7]
  Kd/Ki Value: 13 nM
[8]
  Inhibition of NS formation, wells: less potent
